This is an account of results in the Kinase Knowledgebase extract (Sharma et al. 2016).

For orientation: Ki means a measure of affinity in units of concentration, obtained from inhibition or displacement. Lower therefore signals tighter binding.

Bounds are passed on as bounds.

For the assay, the target named is CDK2 (UniProt P24941). As to the kind of experiment: Enzyme Assay.
In turn, `CC(=O)N1[C@H](C)CN(c2cc(-n3cnc(Nc4ccc(NC(=O)OCC(C)C)cc4)n3)ccn2)C[C@@H]1C` displayed a Ki of 500 to 1000 nM.

`OC[C@H]1CCCN(c2cc(-n3cnc(Nc4ccccc4)n3)ccn2)C1`: the Ki was less than 500 nM.

On to `c1ccc(Nc2ncn(-c3ccnc(NC4CCCCC4)c3)n2)cc1`, for which the Ki was less than 500 nM.

In the case of `O=C(CC1CCCC1)Nc1cc(-n2cnc(Nc3ccccc3)n2)ccn1`, the Ki is more than 1000 nM.

For the compound `CC1CCCN1c1cc(-n2cnc(Nc3ccccc3)n2)ccn1` (stereo not given), the Ki is less than 500 nM.

Consider `c1ccc(-n2cnc(Nc3ccc(N4CCOCC4)nc3)n2)cc1`, for which the Ki is more than 1000 nM.

For the compound `c1ccc(Nc2ncn(-c3ccnc(N4CCCCCCC4)c3)n2)cc1`, the Ki is less than 500 nM.

Turning to `c1ccc(Nc2ncn(-c3ccnc(N4CCCCC4)c3)n2)cc1`, the Ki is less than 500 nM.

`CC(=O)N1CCCN(c2cc(-n3cnc(Nc4ccccc4)n3)ccn2)CC1` had a Ki of 500 to 1000 nM.

The compound `O=C(CCc1ccccc1)Nc1cc(-n2cnc(Nc3ccccc3)n2)ccn1` displayed a Ki of 500 to 1000 nM.

`C[C@@H]1CN(c2cc(-n3cnc(Nc4ccccc4)n3)ncn2)C[C@H](C)N1` yielded a Ki of more than 1000 nM.

`CCCC(=O)N1CCCN(c2cc(-n3cnc(Nc4ccccc4)n3)ccn2)CC1`: the inhibition constant (Ki) was more than 1000 nM.

Turning to `COc1cc(Nc2ncn(-c3ccccc3)n2)cc(OC)c1OC`, the Ki is more than 1000 nM.

`CCN(CCO)c1cc(-n2cnc(Nc3ccccc3)n2)ccn1` registered a Ki of less than 500 nM.

For `CN1CCN(c2ccc(Nc3ncn(-c4ccccc4)n3)cn2)CC1`, the Ki is more than 1000 nM.

Compound `CCOC(=O)c1ccc(Nc2ncn(-c3ccnc(N4C[C@@H](C)N(C(C)=O)[C@@H](C)C4)c3)n2)cc1` gave an inhibitory constant (Ki) of 500 to 1000 nM.

With `COC(=O)Nc1ccc(Nc2ncn(-c3ccnc(N4C[C@@H](C)N(C(C)=O)[C@@H](C)C4)c3)n2)cc1`, the Ki is less than 500 nM.

As to `CC(=O)N1[C@H](C)CN(c2cc(-n3cnc(Nc4ccc(NC(=O)OCC(C)(C)C)cc4)n3)ccn2)C[C@@H]1C`, the Ki lay in the range of 500 to 1000 nM.

Compound `CCOC(=O)Nc1ccc(Nc2ncn(-c3ccnc(N4C[C@@H](C)N(C(C)=O)[C@@H](C)C4)c3)n2)cc1` yielded a Ki of less than 500 nM.

`CC(=O)N1[C@H](C)CN(c2cc(-n3cnc(Nc4ccccc4)n3)ncn2)C[C@@H]1C` registered an inhibition constant Ki of more than 1000 nM.

Turning to `c1ccc(-n2cnc(Nc3ccnc(NCCN4CCOCC4)c3)n2)cc1`, the Ki is more than 1000 nM.

Compound `CCOC(=O)c1ccc(Nc2ncn(-c3ccnc(N4CCCN(C(C)=O)CC4)c3)n2)cc1` returned a Ki of more than 1000 nM.

In the case of `CC(=O)N1CCCN(c2cc(-n3cnc(Nc4ccccc4)n3)ncn2)CC1`, the inhibitory constant (Ki) is more than 1000 nM.

Consider `CCOc1cccc(Nc2ncn(-c3ccccc3)n2)c1`, for which the Ki is more than 1000 nM.

In turn, `CC(=O)N1[C@H](C)CN(c2cc(-n3cnc(Nc4ccc(NC(=O)c5ccco5)cc4)n3)ccn2)C[C@@H]1C` yielded a Ki of 500 to 1000 nM.

As to `CC(=O)N1[C@H](C)CN(c2cc(-n3cnc(Nc4ccc(NC(=O)c5cccs5)cc4)n3)ccn2)C[C@@H]1C`, the Ki was less than 500 nM.

In turn, `COCC(=O)N1CCCN(c2cc(-n3cnc(Nc4ccccc4)n3)ccn2)CC1` came in with a Ki of more than 1000 nM.

Compound `CC(=O)N1[C@H](C)CN(c2cc(-n3cnc(Nc4ccc(N)cc4)n3)ccn2)C[C@@H]1C` showed a Ki of less than 500 nM.

`c1ccc(Nc2ncn(-c3ccnc(N4CCCCCC4)c3)n2)cc1` had a Ki of less than 500 nM.

As to `CC(=O)N1[C@H](C)CN(c2cc(-n3cnc(Nc4ccc(NC(=O)NC(C)C)cc4)n3)ccn2)C[C@@H]1C`, the Ki was less than 500 nM.

`O=C(Cc1ccccc1)Nc1cc(-n2cnc(Nc3ccccc3)n2)ccn1` yielded a Ki of less than 500 nM.

`c1ccc(-n2cnc(Nc3ccc4c(c3)OCCO4)n2)cc1` yielded an inhibition constant Ki of more than 1000 nM.

`c1ccc(-n2cnc(Nc3ccnc(N4CCOCC4)c3)n2)cc1` returned a Ki of 500 to 1000 nM.

As for `CCOc1ccc(Nc2ncn(-c3ccccc3)n2)cc1`, the Ki was more than 1000 nM.

Turning to `O=C(Nc1cc(-n2cnc(Nc3ccccc3)n2)ccn1)C1CCCCC1`, the Ki was in the range of 500 to 1000 nM.

In turn, `CC(=O)N1[C@H](C)CN(c2cc(-n3cnc(Nc4ccc(NC(=O)N(C)C)cc4)n3)ccn2)C[C@@H]1C` registered a Ki of more than 1000 nM.

`CC(=O)N1[C@H](C)CN(c2cc(-n3cnc(Nc4ccc(NC(=O)NC(C)(C)C)cc4)n3)ccn2)C[C@@H]1C` had a Ki of 500 to 1000 nM.

In the case of `CC(C)CCN(C)c1cc(-n2cnc(Nc3ccccc3)n2)ccn1`, the Ki was less than 500 nM.

In turn, `CN(Cc1ccccc1)c1cc(-n2cnc(Nc3ccccc3)n2)ccn1` returned a Ki of less than 500 nM.

`CC(C)(C)CC(=O)Nc1cc(-n2cnc(Nc3ccccc3)n2)ccn1`: the Ki is more than 1000 nM.

`CCCNC(=O)Nc1ccc(Nc2ncn(-c3ccnc(N4C[C@@H](C)N(C(C)=O)[C@@H](C)C4)c3)n2)cc1`: the Ki is less than 500 nM.

In turn, `CCCOC(=O)Nc1ccc(Nc2ncn(-c3ccnc(N4C[C@@H](C)N(C(C)=O)[C@@H](C)C4)c3)n2)cc1` returned a Ki of less than 500 nM.

`CN1C(C)(C)CC(Nc2cc(-n3cnc(Nc4ccccc4)n3)ccn2)CC1(C)C`: the Ki was 500 to 1000 nM.

`CC(=O)N1[C@H](C)CN(c2cc(-n3cnc(Nc4ccc(NC(=O)C(F)(F)F)cc4)n3)ccn2)C[C@@H]1C` gave a Ki of less than 500 nM.

On to `CC(=O)N1[C@H](C)CN(c2cc(-n3cnc(Nc4ccc(N5CCN(C(=O)OC(C)(C)C)CC5)cc4)n3)ccn2)C[C@@H]1C`, for which the Ki was less than 500 nM.

The compound `CC(=O)N1[C@H](C)CN(c2cc(-n3cnc(Nc4ccccc4)n3)ccn2)C[C@@H]1C` showed a Ki of less than 500 nM.

Regarding `CC(=O)N1[C@H](C)CN(c2cc(-n3cnc(Nc4ccc(N5CCOCC5)cc4)n3)ccn2)C[C@@H]1C`, the Ki is less than 500 nM.

`CC(C)Oc1cccc(Nc2ncn(-c3ccccc3)n2)c1` showed a Ki of more than 1000 nM.

In turn, `CN(Cc1cccnc1)c1cc(-n2cnc(Nc3ccccc3)n2)ccn1` yielded a Ki of less than 500 nM.

As to `N#CCC(=O)N1CCCN(c2cc(-n3cnc(Nc4ccccc4)n3)ccn2)CC1`, the Ki was less than 500 nM.

`CC(=O)N1[C@H](C)CN(c2cc(-n3cnc(Nc4ccc(NC(=O)OC(C)C)cc4)n3)ccn2)C[C@@H]1C` yielded a Ki of 500 to 1000 nM.

As to `COCCN(C)c1cc(-n2cnc(Nc3ccccc3)n2)ccn1`, the inhibitory constant (Ki) was less than 500 nM.

`CCCN(CCO)c1cc(-n2cnc(Nc3ccccc3)n2)ccn1`: the Ki is less than 500 nM.

Take `O=c1[nH]c2ccccc2n1C1CCN(c2cc(-n3cnc(Nc4ccccc4)n3)ccn2)CC1`: the Ki is more than 1000 nM.

Consider `CCNC(=O)Nc1ccc(Nc2ncn(-c3ccnc(N4C[C@@H](C)N(C(C)=O)[C@@H](C)C4)c3)n2)cc1`, for which the Ki was less than 500 nM.

In the case of `CN(C)CCCN(C)c1cc(-n2cnc(Nc3ccccc3)n2)ccn1`, the Ki is more than 1000 nM.

For `CC(=O)N1[C@H](C)CN(c2cc(-n3cnc(Nc4ccc(N5CCN(S(=O)(=O)c6ccc(C)cc6)CC5)cc4)n3)ccn2)C[C@@H]1C`, the Ki is 500 to 1000 nM.

`c1ccc(-n2cnc(Nc3ccc(N4CCOCC4)cc3)n2)cc1` came in with a Ki of more than 1000 nM.

In the case of `O=C(C1CCCO1)N1CCN(c2cc(-n3cnc(Nc4ccccc4)n3)ccn2)CC1` (stereo not given), the Ki was more than 1000 nM.

Regarding `CCC(=O)N1CCCN(c2cc(-n3cnc(Nc4ccccc4)n3)ccn2)CC1`, the Ki was more than 1000 nM.

For `CC(C)CC(=O)N1CCCN(c2cc(-n3cnc(Nc4ccccc4)n3)ccn2)CC1`, the Ki is more than 1000 nM.

The compound `CN(CCO)c1cc(-n2cnc(Nc3ccccc3)n2)ccn1` showed an inhibitory constant (Ki) of less than 500 nM.

The compound `CC(C)C(=O)N1CCCN(c2cc(-n3cnc(Nc4ccccc4)n3)ccn2)CC1` showed an inhibition constant (Ki) of more than 1000 nM.

`CCN(CC)CCNc1cc(-n2cnc(Nc3ccccc3)n2)ccn1` returned a Ki of more than 1000 nM.

Compound `COc1cc(Nc2ncn(-c3ccc(C#N)cc3)n2)cc(OC)c1OC` returned a Ki of 500 to 1000 nM.
